The target of the experiment is T1, Human BCL-XL protein (N-terminal HiBiT tagged BCL-XL in HT1080 cells) (Homo sapiens, UniProt Q07817).
T1 construct: expressed in transfected cells; host or cells: HT-1080 (ATCC CCL-121), stably transduced with lentivirus pLV-UBC-N-HiBiT-BCL-XL-PGK-puro and selected with puromycin
The experiment in a line: HiBiT based degradation assay. It is filed as cell-based. The note with it: HT1080 cells expressing HiBiT-BCL-XL; for Ymin (24 h) / Ymin (6 h): BCL-XL degradation normalized with DMSO control; for DC50: BCL-XL degradation. A digest of the protocol: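 This HiBiT degradation assay measured loss of BCL-XL in HT1080 cells that stably express an N-terminal HiBiT-BCL-XL fusion delivered by lentivirus. Cells were added to compound-spotted 384-well plates, and luminescence was read on a PHERAstar FSX reader. Signal was expressed relative to DMSO controls, curves were fitted by four-parameter logistic regression, and for hook-shaped curves the Ymin point served as the bottom plateau when calculating EC50.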

From patent US20240238423A9, “TETRAHYDROISOQUINOLINE HETEROBIFUNCTIONAL BCL-XL DEGRADERS” (Treeline Biosciences, Inc., priority 2022, published 2024) come the findings set out here.

Like-named read-outs stand apart in the source and are kept apart here.

T1 sequence (Q07817 whole entry): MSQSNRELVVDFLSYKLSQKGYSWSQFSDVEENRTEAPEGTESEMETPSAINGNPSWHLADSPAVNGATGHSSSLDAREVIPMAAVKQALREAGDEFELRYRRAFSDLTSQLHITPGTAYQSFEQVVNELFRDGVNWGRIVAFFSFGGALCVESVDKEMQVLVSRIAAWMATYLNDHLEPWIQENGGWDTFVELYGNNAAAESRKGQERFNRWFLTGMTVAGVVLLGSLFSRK

With `Cc1c(Oc2ccc(CCN3CCN(c4ccc5c(C6CCC(=O)NC6=O)nn(C)c5c4)CC3)cc2)cccc1-c1ccc(N2CCc3cccc(C(=O)Nc4nc5ccccc5s4)c3C2)nc1C(=O)O` (stereo not shown) [Compound 208, 6-[8-(1,3-benzothiazol-2-ylcarbamoyl)-3,4-dihydro-1H-isoquinolin-2-yl]-3-[3-[4-[2-[4-[3-(2,6-dioxo-3-piperidyl)-1-methyl-indazol-6-yl]piperazin-1-yl]ethyl]phenoxy]-2-methyl-phenyl]pyridine-2-carboxylic acid], the “Ymin (24 h)” value (24 h) is given as “A (Ymin < 50%)”. Further, the DC50 (24 h, read-out: EC50 (24 h)) is less than 100 nM.
For `Cc1c(OCC(F)(F)CN2C[C@@H](C)N(CC(=O)Nc3cccc4c(C5CCC(=O)NC5=O)nn(C)c34)[C@@H](C)C2)cccc1-c1ccc(N2CCc3cccc(C(=O)Nc4nc5ccccc5s4)c3C2)nc1C(=O)O` (stereo partly drawn) [Compound 209a, 6-[8-(1,3-benzothiazol-2-ylcarbamoyl)-3,4-dihydro-1H-isoquinolin-2-yl]-3-[3-[3-[(3R,5S)-4-[2-[[3-(2,6-dioxo-3-piperidyl)-1-methyl-indazol-7-yl]amino]-2-oxo-ethyl]-3,5-dimethyl-piperazin-1-yl]-2,2-difluoro-propoxy]-2-methyl-phenyl]pyridine-2-carboxylic acid], under “24 h”, the “Ymin (24 h)” value is “B (50% ≤ Ymin < 70%)”. Where the note is “24 h, read-out: EC50 (24 h)”, the DC50 is 100 to 1000 nM.
The like results for `Cc1c(O[C@H]2CC[C@H](CCN3CCN(c4ccc5c(C6CCC(=O)NC6=O)nn(C)c5c4)CC3)CC2)cccc1-c1ccc(N2CCc3cccc(C(=O)Nc4nc5ccccc5s4)c3C2)nc1C(=O)O` (stereo partly shown) [Compound 211a, 6-(8-(benzo[d]thiazol-2-ylcarbamoyl)-3,4-dihydroisoquinolin-2(1H)-yl)-3-(3-(((1r,4r)-4-(2-(4-(3-(2,6-dioxopiperidin-3-yl)-1-methyl-1H-indazol-6-yl)piperazin-1-yl)ethyl)cyclohexyl)oxy)-2-methylphenyl)picolinic acid] were, in that order, “B (50% ≤ Ymin < 70%)” and less than 100 nM.
For the compound `Cc1c(O[C@H]2CC[C@H](CC(F)(F)CN3CCN(c4ccc5c(C6CCC(=O)NC6=O)nn(C)c5c4)CC3)CC2)cccc1-c1ccc(N2CCc3cccc(C(=O)Nc4nc5ccccc5s4)c3C2)nc1C(=O)O` (stereo partly shown) [Compound 212a, 6-(8-(benzo[d]thiazol-2-ylcarbamoyl)-3,4-dihydroisoquinolin-2(1H)-yl)-3-(3-(((1r,4r)-4-(3-(4-(3-(2,6-dioxopiperidin-3-yl)-1-methyl-1H-indazol-6-yl)piperazin-1-yl)-2,2-difluoropropyl)cyclohexyl)oxy)-2-methylphenyl)picolinic acid], the “Ymin (24 h)” value (24 h) is “B (50% ≤ Ymin < 70%)”. The DC50 (24 h, read-out: EC50 (24 h)) is less than 100 nM.
Consider `Cc1c(OCCCCC2CCN(CC(=O)Nc3cccc4c(C5CCC(=O)NC5=O)nn(C)c34)CC2)cccc1-c1ccc(N2CCc3cccc(C(=O)Nc4nc5ccccc5s4)c3C2)nc1C(=O)O` (stereo not shown) [Compound 213, 6-(8-(benzo[d]thiazol-2-ylcarbamoyl)-3,4-dihydroisoquinolin-2(1H)-yl)-3-(3-(4-(1-(2-((3-(2,6-dioxopiperidin-3-yl)-1-methyl-1H-indazol-7-yl)amino)-2-oxoethyl)piperidin-4-yl)butoxy)-2-methylphenyl)picolinic acid], for which the “Ymin (6 h)” value (6 h) is listed as “C (Ymin ≥ 70%)”. Further, under “24 h”, the “Ymin (24 h)” value was “A (Ymin < 50%)”. The DC50 was 1000 to 10000 nM (6 h, read-out: EC50 (6 h)) and 100 to 1000 nM (24 h, read-out: EC50 (24 h)).
As to `Cc1c(O[C@H]2CC[C@H](CCCC(=O)N3CCN(c4cccc5c(C6CCC(=O)NC6=O)nn(C)c45)CC3)CC2)cccc1-c1ccc(N2CCc3cccc(C(=O)Nc4nc5ccccc5s4)c3C2)nc1C(=O)O` (stereo partly shown) [Compound 214a, 6-(8-(benzo[d]thiazol-2-ylcarbamoyl)-3,4-dihydroisoquinolin-2(1H)-yl)-3-(3-(((1s,4r)-4-(4-(4-(3-(2,6-dioxopiperidin-3-yl)-1-methyl-1H-indazol-7-yl)piperazin-1-yl)-4-oxobutyl)cyclohexyl)oxy)-2-methylphenyl)picolinic acid], the “Ymin (24 h)” value (24 h) is “B (50% ≤ Ymin < 70%)”. The DC50 (24 h, read-out: EC50 (24 h)) is less than 100 nM.
For `Cc1c(O[C@H]2CC[C@H](CCN3CCN(c4cccc5c(C6CCC(=O)NC6=O)nn(C)c45)CC3)CC2)cccc1-c1ccc(N2CCc3cccc(C(=O)Nc4nc5ccccc5s4)c3C2)nc1C(=O)O` (stereo partly shown) [Compound 215a, 6-(8-(benzo[d]thiazol-2-ylcarbamoyl)-3,4-dihydroisoquinolin-2(1H)-yl)-3-(3-(((1r,4r)-4-(2-(4-(3-(2,6-dioxopiperidin-3-yl)-1-methyl-1H-indazol-7-yl)piperazin-1-yl)ethyl)cyclohexyl)oxy)-2-methylphenyl)picolinic acid] the same measures were “C (Ymin ≥ 70%)” and less than 100 nM.
With `Cc1c(OCCCC2CCN([C@@H](C)C(=O)Nc3cccc4c(C5CCC(=O)NC5=O)nn(C)c34)CC2)cccc1-c1ccc(N2CCc3cccc(C(=O)Nc4nc5ccccc5s4)c3C2)nc1C(=O)O` (stereo partly drawn) [Compound 216a, 6-(8-(benzo[d]thiazol-2-ylcarbamoyl)-3,4-dihydroisoquinolin-2(1H)-yl)-3-(3-(3-(1-((2S)-1-((3-(2,6-dioxopiperidin-3-yl)-1-methyl-1H-indazol-7-yl)amino)-1-oxopropan-2-yl)piperidin-4-yl)propoxy)-2-methylphenyl)picolinic acid], the “Ymin (24 h)” value (24 h) is recorded as “B (50% ≤ Ymin < 70%)”. Besides, the DC50 (24 h, read-out: EC50 (24 h)) was less than 100 nM.
For `Cc1c(OCCCC2CCN([C@H](C)C(=O)Nc3cccc4c(C5CCC(=O)NC5=O)nn(C)c34)CC2)cccc1-c1ccc(N2CCc3cccc(C(=O)Nc4nc5ccccc5s4)c3C2)nc1C(=O)O` (stereo partly drawn) [Compound 216b, 6-(8-(benzo[d]thiazol-2-ylcarbamoyl)-3,4-dihydroisoquinolin-2(1H)-yl)-3-(3-(3-(1-((2R)-1-((3-(2,6-dioxopiperidin-3-yl)-1-methyl-1H-indazol-7-yl)amino)-1-oxopropan-2-yl)piperidin-4-yl)propoxy)-2-methylphenyl)picolinic acid] the same measures were “B (50% ≤ Ymin < 70%)” and less than 100 nM.
As for `Cc1c(OCCCCCCCCN2CCN(c3cccc4c(C5CCC(=O)NC5=O)nn(C)c34)CC2)cccc1-c1ccc(N2CCc3cccc(C(=O)Nc4nc5ccccc5s4)c3C2)nc1C(=O)O` (stereo not shown) [Compound 217, 6-[8-(1,3-benzothiazol-2-ylcarbamoyl)-3,4-dihydro-1H-isoquinolin-2-yl]-3-[3-[8-[4-[3-(2,6-dioxo-3-piperidyl)-1-methyl-indazol-7-yl]piperazin-1-yl]octoxy]-2-methyl-phenyl]pyridine-2-carboxylic acid], the “Ymin (6 h)” value (6 h) is recorded as “B (50% ≤ Ymin < 70%)”. Under “24 h”, the “Ymin (24 h)” value is on record as “B (50% ≤ Ymin < 70%)”. The DC50 was less than 100 nM (6 h, read-out: EC50 (6 h)) and less than 100 nM (24 h, read-out: EC50 (24 h)).
On to `Cc1c(OCCCN2CCN(CC(=O)Nc3cccc4c(C5CCC(=O)NC5=O)nn(C)c34)[C@@H](C(F)(F)F)C2)cccc1-c1ccc(N2CCc3cccc(C(=O)Nc4nc5ccccc5s4)c3C2)nc1C(=O)O` (stereo partly drawn) [Compound 218a, 6-(8-(benzo[d]thiazol-2-ylcarbamoyl)-3,4-dihydroisoquinolin-2(1H)-yl)-3-(3-(3-((3R)-4-(2-((3-(2,6-dioxopiperidin-3-yl)-1-methyl-1H-indazol-7-yl)amino)-2-oxoethyl)-3-(trifluoromethyl)piperazin-1-yl)propoxy)-2-methylphenyl)picolinic acid], for which, for the setting “6 h”, the “Ymin (6 h)” value was “C (Ymin ≥ 70%)”. Further, the “Ymin (24 h)” value (24 h) was “B (50% ≤ Ymin < 70%)”. Also, the DC50 (6 h, read-out: EC50 (6 h)) was in the range of 1000 to 10000 nM and the DC50 (24 h, read-out: EC50 (24 h)) fell in the range of 100 to 1000 nM.
